We go through 2 molecules from patent publication US6692927B2, “Bax degradation involvement in tumor survival and progression” (University of South Florida, priority 2000, dated 2004).

The experiment concerns Jurkat T cells overexpressing Bcl-2. As to the kind of experiment: Western blot, fractionation, RT-PCR, immunostaining and IP in Bcl-2-overexpressing Jurkat T cells. The experiment is classed as cell-based, human. The conditions noted are these: for cytoplasmic Bax-immunofluorescent signals: immunofluorescent staining. Here is the method: FIGS. 7A-7H show proteasome inhibitor LLnV induces Bax accumulation, cytochrome c release and PARP cleavage in Bcl-2-overexpressing Jurkat T cells. (FIGS. 7A-7C) Jurkat T cells overexpressing Bcl-2 (0 h) were treated with 50 μM LLnV for up to 8 h, followed by preparation of cytosol and mitochondrial fractions. Both fractions were immunoblotted first by an antibody to cytochrome c (Cyto C, MW 17 kDa; FIG. 7A and FIG. 7C) and then reblotted by anti-cytochrome oxidase subunit II (COX, MW 26 kDa; FIG. 7B). Note: 20 μg protein from the cytosol, and 40 μg protein from the mitochondrial, preparation was used in each lane. (FIGS. 7D-7G) Whole cell extracts (70 μg per lane) of the above treated cells were immunoblotted with specific antibodies to PARP (FIG. 7D), Bax (clone N-20; FIG. E), Bcl-2 (FIG. 7F), or actin (FIG. 7G). Molecular masses of PARP, the PARP cleavage fragment (p85), Bax, Bcl-2 and actin are 113, 85, 21, 26 and 40 kDa, respectively. Positions of protein markers are indicated at right. (FIG. 7H) Bcl-2-expressing Jurkat cells (Control) were treated with 50 μM LLnV for 8 h, followed by RT-PCR. For the first-strand cDNA synthesis, 0.2 (lanes 1, 4), 0.6 (lanes 2, 5) and 1.8 μg (lanes 3, 6) of the total RNA were used. The positions of Bax (538 bp) and G3PDH mRNA (983 bp) are indicated. Lane M is DNA molecular weight marker.
FIGS. 8A-8D show proteasome inhibition accumulates Bax to mitochondria/cytoplasm and increases interaction between Bax and Bcl-2 proteins. Jurkat cells (0 h; FIG. 8A and FIG. 8B) or Jurkat cells overexpressing Bcl-2 (0 h; FIG. 8C and FIG. 8D) were treated by either 10 μM lactacystin (FIGS. 8A-8C), 50 μM LLnV (FIG. 8D), or 50 μM LLM (FIG. 8A and FIG. 8B) for the indicated hours. (FIG. 8A and FIG. 8B) Western blotting with antibodies to PARP and Bax were performed as described in FIG. 7. (FIG. 8C) Immunohistochemistry (see MATERIALS AND METHODS). Localization of Bax protein (green) and nuclei (red) are shown. (FIG. 8D) Bax immunoprecipitates, prepared by an agarose-conjugated N-20 Bax antibody, were immunoblotted first with the 6A7 Bax antibody (upper) and then reblotted with a Bcl-2 antibody (lower).
Cell Culture and Drug Treatment: Human breast cancer MCF-7 cells, Jurkat T cells, and Jurkat T cells stably transfected with pRcCMV vector containing a complete human bcl-2 cDNA (obtained from Dr. Hong-gang Wang, Moffitt Cancer Center & Research Institute) were grown in RPMI 1640 growth medium (An et al., 1998). Treatment of cell with a proteasome inhibitor was performed as described (An et al., 1998; Dou et al., 1999).
Western blot analysis and Immunoprecipitation: Whole cell extract (An et al., 1996), whole tissue extracts (Loda et al., 1997), and cytosol and mitochondria fractions (Fang et al., 1998) were prepared as described. The enhanced chemiluminescence Western blot assay was performed as described previously (An et al., 1996). To perform a coupled immunoprecipitation-Western blot assay, a whole cell or tissue extract (200 microg protein) was first precleared by incubating with protein A plus protein G agarose beads (Calbiochem) at 4° C. for 2 hours. The collected supernatant was then incubated for at least 3 hours with either […] of agarose beads conjugated with the N20 Bax antibody (Santa Cruz Biotech), or the 6A7 Bax antibody, followed by incubation with protein A/protein G beads at 4° C. overnight. The washed Bax immunoprecipitates were boiled in SDS sample buffer and used for Western blotting with antibodies to Bax, Bcl-2 or ubiquitin.
Immunocytochemistry and Reverse Transcriptase-Polymerase Chain Reaction (RT-PCR): Immunocytochemistry was performed with the rabbit polyclonal Bax antibody (N20) and an FITO-labeled goat anti-rabbit antibody (Southern Biotech.; Birmingham, Ala.), followed by counter-staining nuclei with propidium iodide (Sigma) (Bossy-Wetzel et al., 1998). To perform RT-PCR, total RNA was isolated from Jurkat T cells by an Advantage RT-for-PCR kit (Clontech; palo Alto, Calif.). […]
(A western blot detects proteins with antibodies after separation by electrophoresis.)

Where a SMILES comes first, the peptide text is derived from it. [ ]: non-standard residue; d: D form. The star is where a group is joined. Nva = CCC[C@H](N)C(=O)O; Cbz = O=C(OCc1ccccc1)*

Take `CCC[C@@H](C=O)NC(=O)[C@H](CC(C)C)NC(=O)[C@H](CC(C)C)NC(=O)OCc1ccccc1` [LLnV] (Cbz-Leu-Leu-[Nva]-aldehyde): the “cytoplasmic Bax-immunofluorescent signals” value is “markedly increased”. In addition, under “50 μM LLnV, 6 to 8 hours”, the “level of cytosolic cytochrome c” value is “increased”. The “level of Bax protein (Bax/p21)” value (50 μM LLnV, 1 hour or longer, Western blot) is “increased”. For the same molecule, the “Bax mRNA level” value (50 μM LLnV, 8 h, RT-PCR) was “remained unchanged”. The “levels of Bax/p21 and Bax-bound Bcl-2 protein” value (50 μM LLnV, Bax immunoprecipitation-Western blot) is “significantly increased”. Under “50 μM LLnV, up to 8 h”, the “induction of apoptosis (PARP cleavage)” value is “cleavage of PARP” and the “levels of the overexpressed Bcl-2 protein” value is given as “Little changes”.

Take `CC(=O)N[C@@H](CSC(=O)[C@]1([C@@H](O)C(C)C)NC(=O)[C@H](C)[C@@H]1O)C(=O)O` [lactacystin]: the “cytoplasmic Bax-immunofluorescent signals” value is reported as “markedly increased”.
